# Measured values: ChEMBL document CHEMBL1201862, “PubChem BioAssay data set” (2004)
# Calls of active or inactive are those of the source.
# Columns and labels:
# [1] = biological target: Ras and Rab interactor 1/Tyrosine-protein kinase ABL1 (Homo sapiens, UniProt P00519+Q13671); format: functional;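 further: biochemical TR-FRET dose-response test measuring inhibition of binding between Rin1 and Abl proteins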
# [2] = biological target: T1, Short transient receptor potential channel 4 (Mus musculus, UniProt Q9QUQ5); experiment: mouse TRPC4 channel inhibitors, dose response, cell-based, HEK293 TRPC4/mu-opioid, Fluo-4 calcium (AID 434942); format: functional;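 further: potency of inhibitors blocking the TRPC4 calcium response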
# T1 sequence (Q9QUQ5 whole entry): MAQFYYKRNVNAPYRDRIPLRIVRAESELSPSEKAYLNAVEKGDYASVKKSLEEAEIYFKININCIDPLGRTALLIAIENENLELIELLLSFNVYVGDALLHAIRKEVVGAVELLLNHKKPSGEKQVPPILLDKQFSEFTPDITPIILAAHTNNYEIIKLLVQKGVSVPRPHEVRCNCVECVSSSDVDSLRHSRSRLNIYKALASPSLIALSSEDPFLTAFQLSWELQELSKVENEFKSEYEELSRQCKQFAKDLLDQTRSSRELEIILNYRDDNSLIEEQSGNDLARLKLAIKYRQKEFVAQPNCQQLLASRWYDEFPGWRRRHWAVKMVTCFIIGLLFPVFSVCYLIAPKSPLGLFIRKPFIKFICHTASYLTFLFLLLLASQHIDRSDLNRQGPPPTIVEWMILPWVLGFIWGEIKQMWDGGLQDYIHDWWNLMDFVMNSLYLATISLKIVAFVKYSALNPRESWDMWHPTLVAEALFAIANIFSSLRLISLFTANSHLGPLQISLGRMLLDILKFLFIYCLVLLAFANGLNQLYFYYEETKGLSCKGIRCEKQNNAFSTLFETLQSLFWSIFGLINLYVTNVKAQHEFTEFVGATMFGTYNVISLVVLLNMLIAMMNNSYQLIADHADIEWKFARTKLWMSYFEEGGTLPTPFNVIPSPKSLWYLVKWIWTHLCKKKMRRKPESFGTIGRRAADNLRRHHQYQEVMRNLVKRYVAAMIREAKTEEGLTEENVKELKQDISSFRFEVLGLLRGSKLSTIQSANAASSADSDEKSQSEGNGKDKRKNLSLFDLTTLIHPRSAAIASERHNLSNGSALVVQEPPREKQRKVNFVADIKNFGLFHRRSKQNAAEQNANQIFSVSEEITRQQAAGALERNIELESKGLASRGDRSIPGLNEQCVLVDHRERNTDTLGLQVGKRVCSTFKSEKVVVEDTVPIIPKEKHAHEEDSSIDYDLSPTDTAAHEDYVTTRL
# [3] = CRF-BP/CRF-R2 complex antagonists, dose response, cell-based, uHTS hits, 384-well (AID 651639); format: functional, Homo sapiens; conditions: read-out: IC50_Mean
# [4] = biological target: T2, Corticotropin-releasing factor receptor 2/Corticotropin-releasing factor-binding protein (Homo sapiens, UniProt P24387+Q13324); experiment: activators of CRF receptor 2 with binding protein – uHTS hits, confirmation (AID 602473); format: functional; conditions: read-out: EC50_Mean
# T2 sequence (Q13324 whole entry): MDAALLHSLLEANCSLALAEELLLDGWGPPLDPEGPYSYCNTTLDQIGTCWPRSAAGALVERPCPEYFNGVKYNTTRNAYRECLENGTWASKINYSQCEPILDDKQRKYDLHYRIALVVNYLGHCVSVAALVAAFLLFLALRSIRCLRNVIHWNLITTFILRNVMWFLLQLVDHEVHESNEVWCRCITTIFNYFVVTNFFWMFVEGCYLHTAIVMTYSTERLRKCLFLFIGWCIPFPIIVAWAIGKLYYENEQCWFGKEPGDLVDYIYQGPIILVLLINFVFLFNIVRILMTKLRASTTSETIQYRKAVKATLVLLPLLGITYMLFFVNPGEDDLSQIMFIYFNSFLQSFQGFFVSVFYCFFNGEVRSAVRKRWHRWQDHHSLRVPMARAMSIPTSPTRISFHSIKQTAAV
# T2 sequence (P24387 whole entry): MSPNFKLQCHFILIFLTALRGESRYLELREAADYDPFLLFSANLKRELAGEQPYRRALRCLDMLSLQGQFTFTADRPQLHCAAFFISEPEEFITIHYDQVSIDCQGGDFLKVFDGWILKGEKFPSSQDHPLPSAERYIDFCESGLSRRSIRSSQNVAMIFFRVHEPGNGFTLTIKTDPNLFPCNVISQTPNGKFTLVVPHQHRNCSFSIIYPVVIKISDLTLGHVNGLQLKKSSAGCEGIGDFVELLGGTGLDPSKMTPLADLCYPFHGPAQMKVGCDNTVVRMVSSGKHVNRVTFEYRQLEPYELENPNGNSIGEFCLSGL
# [5] = biological target: T2, Corticotropin-releasing factor receptor 2/Corticotropin-releasing factor-binding protein; experiment: Dose Response confirmation of uHTS hits for small molecule antagonists of the CRF-binding protein and CRF-R2 receptor complex.; format: functional; conditions: read-out: IC50_Mean
# Vero [6] = experiment: cells; format: functional, cell-based; conditions: Chlorocebus sabaeus
# Vero [7] = experiment: cells; format: functional; conditions: Chlorocebus sabaeus
# [8] = inhibitors of firefly luciferase expression or activity, dose response, H4 neuroglioma cells, luminescence (AID 1990); format: functional, cell-based
# [9] = inhibitors of SNCA 5'UTR-driven reporter translation, confirmation, H4 neuroglioma cells, luminescence (AID 1988); format: functional, cell-based
# BJ [10] = experiment: cytotoxicity toward BJ-TERT-LT-ST fibroblasts, dose response, cell-based, RAS-independent, luminescence (AID 1935); format: functional; conditions: Homo sapiens;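 further: BJ fibroblasts immortalized with TERT plus LT and ST oncogenes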
# BJ [11] = experiment: cells; format: functional, cell-based; conditions: Homo sapiens
# BJ [12] = experiment: cytotoxicity toward BJ-TERT fibroblasts, dose response, cell-based, RAS-independent, luminescence (AID 1933); format: functional; conditions: Homo sapiens
# [13] = cytotoxicity toward DRD oncogenic fibroblasts, dose response, cell-based, non-viral oncogenic, luminescence (AID 1934); format: functional; conditions: Homo sapiens
# INS1 = experiment: beta cell apoptosis inhibitors, cytokine rescue, dose response, luminescence, retest (AID 449756); format: functional, cell-based; conditions: Rattus norvegicus;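 further: cell death triggered by IL-1 beta plus TNF-alpha plus IFN-gamma mixture; protective hits raise ATP signal compared with cytokine alone wells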
# [14] = biological target: T3, Heat shock factor protein 1 (Mus musculus, UniProt P38532); experiment: inhibition of MG132-induced HSE-luciferase signal, confirmation, cell-based, NIH3T3, luminescence, dose retest (AID 2382); format: functional;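 further: NIH3T3 fibroblasts with HSF1-driven luciferase reporter stressed by proteasome inhibitor MG132; luminescence from HSF1-driven luciferase expression after 8 hours of MG132 stress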
# T3 sequence (P38532 whole entry): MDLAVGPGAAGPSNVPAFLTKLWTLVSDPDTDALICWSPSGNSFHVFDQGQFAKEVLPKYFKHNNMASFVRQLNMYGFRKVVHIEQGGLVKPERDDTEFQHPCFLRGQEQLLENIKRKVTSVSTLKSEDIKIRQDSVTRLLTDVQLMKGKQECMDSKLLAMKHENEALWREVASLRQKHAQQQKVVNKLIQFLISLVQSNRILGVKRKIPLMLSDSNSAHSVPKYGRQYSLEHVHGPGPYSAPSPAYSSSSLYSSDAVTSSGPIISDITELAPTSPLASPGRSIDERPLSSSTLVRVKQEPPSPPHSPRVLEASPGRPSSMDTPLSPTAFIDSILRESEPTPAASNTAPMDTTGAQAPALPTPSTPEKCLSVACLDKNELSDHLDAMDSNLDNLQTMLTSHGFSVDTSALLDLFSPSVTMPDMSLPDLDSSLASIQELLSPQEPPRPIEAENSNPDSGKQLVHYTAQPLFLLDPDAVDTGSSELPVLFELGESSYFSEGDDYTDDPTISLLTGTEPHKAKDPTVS
# Coagulation factor XII = biological target: T4, Coagulation factor XII (Homo sapiens, UniProt P00748); format: functional;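 further: activated factor XIIa alpha cleaving a fluorogenic AMC peptide substrate; inhibitor potency from loss of enzyme activity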
# T4 sequence (P00748 whole entry): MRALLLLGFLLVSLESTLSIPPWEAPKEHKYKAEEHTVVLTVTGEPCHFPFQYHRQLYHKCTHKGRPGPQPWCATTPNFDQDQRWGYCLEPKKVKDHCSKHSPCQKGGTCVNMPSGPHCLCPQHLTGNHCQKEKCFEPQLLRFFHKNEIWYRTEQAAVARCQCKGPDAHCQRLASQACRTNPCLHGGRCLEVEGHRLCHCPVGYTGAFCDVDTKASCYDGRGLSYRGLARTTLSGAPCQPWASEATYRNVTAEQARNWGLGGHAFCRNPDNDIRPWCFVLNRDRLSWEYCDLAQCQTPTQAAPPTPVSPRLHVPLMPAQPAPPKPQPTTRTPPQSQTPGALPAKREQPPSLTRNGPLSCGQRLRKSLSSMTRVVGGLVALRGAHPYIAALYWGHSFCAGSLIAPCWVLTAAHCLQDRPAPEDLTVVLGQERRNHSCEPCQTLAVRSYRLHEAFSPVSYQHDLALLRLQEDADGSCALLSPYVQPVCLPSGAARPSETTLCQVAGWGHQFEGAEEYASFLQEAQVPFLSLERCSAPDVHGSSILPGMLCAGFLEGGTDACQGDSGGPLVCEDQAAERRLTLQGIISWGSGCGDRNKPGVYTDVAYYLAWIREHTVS
# [15] = growth suppression of PTEN-null colon cells, dose response, cell-based, HCT116 PTEN knockout (AID 1047); format: functional;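 further: HCT116 colon tumor cells with PTEN knocked out; cells exposed to compound for 60 hours before readout; potency for loss of cell viability measured by luminescence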
# [16] = growth suppression of beta-catenin-knockout colon cells, dose response, cell-based, HCT116, human colon tumor (AID 1045); format: functional;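 further: HCT116 colon tumor cells with beta catenin knocked out; cells exposed to compound for 60 hours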
# [17] = HepG2 cell cytotoxicity, dose response, cytotoxicity control for Shn3 inhibitor project, CellTiter-Glo, cherry-picked (AID 624134); format: functional, cell-based
# [18] = control 3'UTR Renilla luciferase suppression, dose response, counter-screen for Shn3 inhibitor project, cell-based, Clone20-Shn3RL, cherry-picked (AID 624133); format: functional
# [19] = Shn3 3'UTR reporter inhibitors, dose response, cell-based, Clone20 osteoblasts, firefly luciferase, cherry-picked (AID 624132); format: functional;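 further: firefly luciferase luminescence from reporter carrying the Shn3 3'UTR in osteoblasts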
# [20] = biological target: T3, Heat shock factor protein 1; experiment: HSF1 potentiators in luciferase reporter cells, confirmation, cell-based, NIH3T3, luminescence, dose retest (AID 435004); format: functional;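 further: stress induced by proteasome inhibitor MG132 added 30 min after compound; luciferase reporter driven by HSF1 response element in NIH3T3 cells; actives raise luminescence as potentiators of the MG132 stress response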
# [21] = Luminescence Cell-Based Dose Retest to Confirm Inhibitors of Cancer Stem Cells. [Related pubchem assays (depositor defined):AID2717, AID2721]; format: functional; conditions: Homo sapiens
# Protein Wnt-3a = Protein Wnt-3a (Mus musculus, UniProt P27467); experiment: Wnt3a-driven reporter signaling inhibition, dose response, selectivity assay for Gli-SUFU antagonist project, Wnt-LIGHT cells, luminescence (AID 651570); format: functional; conditions: read-out: IC50_Mean;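 further: Wnt-LIGHT reporter cells stimulated with conditioned medium from Wnt3a-producing cells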
# Sequence of Protein Wnt-3a (P27467 whole entry): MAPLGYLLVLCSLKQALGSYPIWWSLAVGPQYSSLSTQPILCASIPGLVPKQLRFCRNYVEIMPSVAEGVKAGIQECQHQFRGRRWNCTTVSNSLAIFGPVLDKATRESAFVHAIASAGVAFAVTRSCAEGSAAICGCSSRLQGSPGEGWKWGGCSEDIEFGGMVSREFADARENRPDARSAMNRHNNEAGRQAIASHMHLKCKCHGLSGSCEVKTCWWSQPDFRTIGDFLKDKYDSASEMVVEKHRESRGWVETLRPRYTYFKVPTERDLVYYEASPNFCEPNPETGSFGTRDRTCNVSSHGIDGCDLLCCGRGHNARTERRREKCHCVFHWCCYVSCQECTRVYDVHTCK
# [22] = microbe, parasite or virus in culture; format: functional; conditions: Mycobacterium tuberculosis
# [23] = AlphaScreen signal interference compounds, dose response, artefact control for ARNT-TACC3 interaction inhibitor project, biochemical, luminescence, cherry-pick (AID 651705); format: functional;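 further: AlphaScreen bead proximity signal that flags compounds interfering with the detection technology; potency reflects signal decrease which marks the compound as an assay artifact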
# [24] = HEp-2 cell cytotoxicity, dose response, cytotoxicity control for RSV inhibitor project, HTS (AID 2410); format: functional; conditions: human respiratory syncytial virus
# [25] = Luminescence Cell-Based Dose Response HTS to Identify Inhibitors of 5'UTR Stem-Loop Driven Prion Protein mRNA Translation in H4 Neuroglioblastoma Cells. [Related pubchem assays: 1827 (Project Summary), 1813 (Primary HTS)]; format: functional
# Sequence of Ras and Rab interactor 1/Tyrosine-protein kinase ABL1 (P00519 whole entry): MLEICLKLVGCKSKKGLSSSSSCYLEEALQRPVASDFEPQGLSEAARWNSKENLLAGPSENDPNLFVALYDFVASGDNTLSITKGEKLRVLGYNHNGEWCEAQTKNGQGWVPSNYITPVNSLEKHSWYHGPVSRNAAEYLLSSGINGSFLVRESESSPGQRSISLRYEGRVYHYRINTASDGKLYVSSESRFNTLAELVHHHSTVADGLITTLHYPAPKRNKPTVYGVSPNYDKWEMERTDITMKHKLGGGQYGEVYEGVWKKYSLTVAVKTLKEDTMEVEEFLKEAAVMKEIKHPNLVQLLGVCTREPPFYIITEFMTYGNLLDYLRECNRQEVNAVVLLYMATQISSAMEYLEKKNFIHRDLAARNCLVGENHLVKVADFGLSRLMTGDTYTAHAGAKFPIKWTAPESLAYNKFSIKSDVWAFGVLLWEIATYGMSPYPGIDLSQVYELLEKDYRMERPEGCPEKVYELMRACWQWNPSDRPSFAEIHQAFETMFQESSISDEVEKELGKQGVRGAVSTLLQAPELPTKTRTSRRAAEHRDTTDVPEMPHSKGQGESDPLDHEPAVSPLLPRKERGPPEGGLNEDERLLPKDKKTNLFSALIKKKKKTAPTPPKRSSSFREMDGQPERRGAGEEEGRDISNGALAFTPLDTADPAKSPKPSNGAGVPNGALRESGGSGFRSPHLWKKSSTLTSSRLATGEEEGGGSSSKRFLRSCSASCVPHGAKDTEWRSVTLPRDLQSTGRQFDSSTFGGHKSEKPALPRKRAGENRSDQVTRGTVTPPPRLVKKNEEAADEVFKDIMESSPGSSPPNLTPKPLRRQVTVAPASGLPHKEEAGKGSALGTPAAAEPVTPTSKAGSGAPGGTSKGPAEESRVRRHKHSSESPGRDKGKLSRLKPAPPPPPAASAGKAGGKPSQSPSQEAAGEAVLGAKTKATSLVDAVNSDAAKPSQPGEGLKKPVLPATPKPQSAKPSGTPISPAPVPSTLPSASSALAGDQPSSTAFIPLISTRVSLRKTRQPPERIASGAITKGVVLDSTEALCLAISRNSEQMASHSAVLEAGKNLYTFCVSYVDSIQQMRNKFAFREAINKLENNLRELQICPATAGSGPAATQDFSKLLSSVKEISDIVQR
# Sequence of Ras and Rab interactor 1/Tyrosine-protein kinase ABL1 (Q13671 whole entry): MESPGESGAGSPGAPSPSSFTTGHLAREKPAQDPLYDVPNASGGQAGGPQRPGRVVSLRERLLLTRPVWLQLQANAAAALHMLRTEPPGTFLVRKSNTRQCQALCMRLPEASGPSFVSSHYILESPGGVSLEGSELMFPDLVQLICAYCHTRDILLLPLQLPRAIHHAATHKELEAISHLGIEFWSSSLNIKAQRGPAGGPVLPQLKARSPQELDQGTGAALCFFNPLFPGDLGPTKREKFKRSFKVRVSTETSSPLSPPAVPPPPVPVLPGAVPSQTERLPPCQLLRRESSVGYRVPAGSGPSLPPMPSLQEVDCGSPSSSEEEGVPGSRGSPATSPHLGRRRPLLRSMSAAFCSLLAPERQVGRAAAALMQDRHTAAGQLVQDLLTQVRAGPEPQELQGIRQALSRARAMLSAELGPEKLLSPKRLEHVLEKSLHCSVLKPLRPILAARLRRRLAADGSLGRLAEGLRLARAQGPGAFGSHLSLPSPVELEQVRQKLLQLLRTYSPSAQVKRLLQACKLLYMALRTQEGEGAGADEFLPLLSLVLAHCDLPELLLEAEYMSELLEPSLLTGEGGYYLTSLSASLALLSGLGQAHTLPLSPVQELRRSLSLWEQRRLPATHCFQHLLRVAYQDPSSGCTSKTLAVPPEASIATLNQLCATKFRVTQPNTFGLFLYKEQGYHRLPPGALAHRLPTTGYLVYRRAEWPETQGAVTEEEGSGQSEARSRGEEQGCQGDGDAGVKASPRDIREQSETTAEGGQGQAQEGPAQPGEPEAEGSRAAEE
smiles,measurement,setting,value
CCOc1ccccc1N(C(=O)c1snc(C(N)=O)c1N)C(C(=O)NCc1ccccc1)c1ccc(O)cc1 (stereo not given),IC50,[1],> 73.5 µM (inactive)
same,EC50,[2],4.22 µM (active)
CCOC(=O)c1c(-c2ccc(OC)c(OC)c2)csc1NC(=O)C1CCCO1 (stereo not given),IC50,[3],> 20 µM (inactive)
same,EC50,[4],> 53 µM (inactive)
same,IC50,[5],3.95 µM (active)
O=C(NC1CCCc2c1cnn2-c1ccccc1F)c1ccccn1 (stereo not given),IC50,Vero [6],5.73 µM (active)
same,CC50,Vero [7],> 25 µM (active)
same,EC50,[8],> 120 µM (not active)
same,EC50,[9],57.4 µM (active)
O=c1[nH]c(=O)n(-c2ccc(F)cc2)c2c1C(C(F)(F)F)(C(F)(F)F)NC(c1ccc(F)cc1)=N2,EC50,BJ [10],> 150 µM (not active)
same,EC50,BJ [11],66.7 µM (inconclusive)
same,IC50,[3],13.2 µM (active)
same,EC50,BJ [12],> 150 µM (not active)
same,EC50,[13],25.7 µM (active)
same,AC50,INS1,5.15 µM (active)
COc1cccc(CNc2ccc(S(N)(=O)=O)cc2)c1OC,EC50,[14],> 195 µM (not active)
same,IC50,Coagulation factor XII,> 50 µM (inactive)
CCOCc1nnc(NC(=O)c2c(OC)cccc2OC)s1,IC50,[1],18 µM (inactive)
O=C(CN(C(=O)c1ccccc1Cl)C1CCCCC1)Nc1ccc(Cl)c([N+](=O)[O-])c1,EC50,[15],16.1 µM (active)
same,EC50,[16],17.4 µM (active)
same,AC50,[17],63.7 µM (active)
same,IC50,Coagulation factor XII,> 50 µM (inactive)
same,AC50,[18],10.8 µM (active)
same,AC50,[19],5.1 µM (active)
same,EC50,[20],> 260 µM (inactive)
Cc1cc(C)nc(SCc2ccc(C(=O)NNC(=O)Nc3cccc(Cl)c3)cc2)n1,IC50,[3],11.6 µM (active)
same,AC50,[21],3.65 µM (active)
same,EC50,[4],> 53 µM (inactive)
same,IC50,[5],5.95 µM (active)
CCOC(CN=c1nc(N(C)C)ss1)OCC,IC50,Protein Wnt-3a,40.4 µM (inactive)
COc1ccc(-[n+]2cc(-c3ccc(OC(F)F)cc3)n3c2CCCCC3)cc1,AC50,INS1,2.14 µM (active)
same,IC50,Protein Wnt-3a,12.3 µM (active)
CC(=O)Nc1cccc(-c2ccnc3c2CC(C(=O)NCc2ccc(N4CCN(C)CC4)cc2)O3)c1 (stereo not given),IC50,[1],14.4 µM (inactive)
Cc1cc(C)c(C(N)=O)c(SCC(=O)c2cc(C)n(-c3cc(C)on3)c2C)n1,AC50,[17],1.68 µM (active)
same,IC50,Protein Wnt-3a,1.8 µM (active)
same,AC50,[18],0.332 µM (active)
same,AC50,[19],0.942 µM (active)
c1ccc(-c2n[nH]c(-c3ccccn3)n2)cc1,CC50,[22],> 40 µM (active)
same,AC50,[23],116 µM (active)
Cc1cc(C(=O)Cn2nnc3ccccc3c2=O)c(C)n1-c1ccccc1F,IC50,Vero [6],6.16 µM (active)
same,IC50,cells,30.9 µM (active)
same,CC50,[24],20.4 µM (active)
same,EC50,[9],9.28 µM (active)
same,EC50,[25],10.1 µM (active)
CN(C)CC1CCC/C(=C/c2ccc(Cl)cc2)C1=O (stereo not given),IC50,Vero [6],> 25 µM (active)
same,CC50,Vero [7],21.4 µM (active)
O=C(Nc1ccccc1SCC1CSc2nc3ccccc3c(=O)n21)c1cccc(Cl)c1 (stereo not given),IC50,Vero [6],14.9 µM (active)
same,IC50,cells,10.3 µM (active)
same,CC50,[24],24.7 µM (active)
same,CC50,Vero [7],> 25 µM (active)
